Measured values taken from US5776957A, “Nornicotine enantiomers for use as a treatment for dopamine related conditions and disease states” (The University of Kentucky Research Foundation, priority 1996, dated 1998).
“Also recorded” adds a separate entry of the source. Where two headings read alike, the source gives them in different places.

Key:
[1] = i.p. [14C-N-methyl]NIC, HPLRC; cited from earlier work
[2] = NIC and metabolites in rat brain after s.c. injection of radiolabelled NIC; assay type: in vivo
Source text: NIC metabolism studies involving HPLRC analysis invariably utilize NIC with a radiolabel (i.e., [^3 H], [^14 C] or [^11 C]) incorporated in the methyl group. However N-demethylated NIC metabolites (norNIC and norCOT) cannot be detected after injection of such radionuclides, since the label is lost in the formation of these metabolites. NIC and four NIC metabolites have recently been detected in rat brain 4 hr after s.c. injection of [2'-^14 C]NIC (FIG. 3, Table I). Three of these metabolites have been identified as COT, norNIC and norCOT. A fourth minor metabolite (Peak B) has not been completely identified but appears to be an N-demethylated metabolite, since it is not detected in the [^3 H-N-methyl]NIC studies.
COT, and therefore, is unlikely to originate from COT N-demethylation. 3-HydroxyCOT and its glucuronide conjugate were not detected as metabolites of either NIC or COT in brain, even though these are major biotransformation products in the periphery (Crooks, 1993).
It appears that NIC metabolites which accumulate with a time course that correlates with the development of behavioral sensitization to NIC have a role in eliciting sensitization to NIC. The inventors have detected NIC, COT, norNIC and norCOT in brain 4 hr following acute s.c. injection of (±)[2'-^14 C]NIC. S(-) [^3 H] -N-methyl]NIC is unsuitable for studying brain metabolism of NIC, since nor-metabolites (i.e., demethylated metabolites) cannot be detected due to [^3 H]-loss during metabolism (Crooks et al., 1995b, AP 7). Thus, commercially available (±)[2'-^14 C]NIC was used to determine NIC metabolites present in brain. This form of radiolabelled NIC provides a metabolically stable [^14 C]-label which allows measurement of all potential NIC metabolites.
A second "metabolite" (Peak A, FIG. 2) was also detected at each time point and most likely results from a combination of metabolic cleavage of the N-methyl group and dissociated-[^3 H], i e, Peak A represents an oxidized 1-carbon unit and indicates the extent of NIC N-demethylation. Note, in our subsequent studies with [2'-^14 C]NIC, Peak A was not observed, which is consistent with our interpretation of the results (Table 1).

[3] = test system: [3H]DA-preloaded rat striatal slices (nicotinic receptors); assay: [3H]overflow (DA release) from [3H]DA-preloaded rat striatal slices; assay type: cell-based
Method: In vitro pharmacological effects of NIC are generally investigated using either striatal slices or synaptosome preparations preloaded with [^3 H] DA. NIC-evoked [^3 H]overflow is obtained routinely in the presence of nomifensine (10 μM; a DA uptake inhibitor) and for pargyline (10 μM, a monoamine oxidase inhibitor) in the superfusion buffer, such that [^3 H]overflow represents primarily [^3 H]DA rather than [H]DA-metabolites (Zumstein et al., 1981, Hoffmann and Cubeddu, 1982, Dwoskin and Zahniser, 1986, Rapier et al., 1988), and for this reason, [^3 H]overflow also will be referred to as [^3 H] DA release in the proposal.
The present studies use striatal slices superfused with various concentrations of NIC or norNIC for prolonged periods.
FIG. 4. […] Insets illustrate the response to the low concentration range. […] NIC exposure indicated by the bar under time course. Note: 1-min sample collection period. […] N=4 rats.
Rat striatal slices were depolarized with 10 μM NIC, 20 mM K+or 1 Hz, 60 pulses or 3 Hz, 180 pulses electrical field stimulation. […] N=4.
MEC or DHβE was included in the superfusion buffer for 60 min prior to the addition of NIC, and superfusion continued for 60 min in the presence of NIC+antagonist.

[4] = GC-MS, Deutsch et al., 1992; cited from earlier work
[5] = Stolerman et al. (1995), cited from earlier work
[6] = Stolerman et al., 1984; cited from earlier work
[7] = test system: N-methyl-D-aspartate(NMDA) receptor; conditions: MK-801 site within the channel; cited from earlier work
[8] = cited from earlier work
[9] = water, ethyl alcohol, ether, chloroform, benzene, ethyl acetate, carbon disulfide; cited from earlier work
[10] = Locomotor activity assay, acute and repeated treatment, S(-) nicotine challenge, saline challenge; assay type: in vivo, rat; conditions: for behavioral sensitization after repeated administration: 8 injections once every 48 hrs, nicotine 1 mg/kg, R(+) 0.3-10 mg/kg, S(-) nornicotine 10 mg/kg; for enabling of sensitization to S(-) nicotine: repeated R(+) nornicotine, S(-) nicotine challenge
Method: (I mg/kg), norNIC (0.3-10 mg/kg) or R(+) norNIC (0.3-10 mg/kg) was administered peripherally (s.c., 8 injections once every 48 hrs) to groups of rats and locomotor activity was assessed for 50 min immediately after each injection.
In the present study, S(-) nicotine (1 mg/kg), R(+) nornicotine (1-10 mg/kg), S(-) nornicotine (1-10 mg/kg), or vehicle (saline) were administered s.c. to groups of rats (n=6) acutely or repeatedly (8 injections once every 48 hrs). Locomotor activity was measured during 50 min sessions immediately following drug or vehicle administration.
Male Sprague-Hawley rats (225-250 g) from Harlan Laboratories were housed two per cage with free access to food and water.
Activity was recorded automatically in a wooden test-chamber measuring 30×28×43 cm high. The chamber had white walls and a wire mesh floor over pine chip bedding. Two photobeams located 4.5 cm above the floor divided the chamber into four equal quadrants. Electromechanical equipment located in an adjacent room recorded photobeam interruptions automatically. A white noise generator provided an ambient 70 dB background noise in the test room in order to minimize extraneous sounds that might influence the animal's behavior in the test chamber. Rats were habituated to the chamber for 50 min on each of three consecutive days.
On the day immediately after the third habituation session, rats were randomly divided into groups (n=6/group) and were administered s.c. either S(-) nicotine (1 mg/kg), R(+) nornicotine (0.3, 1, 3 and 10 mg/kg), or vehicle (saline) to determine acute drug effects on locomotor activity. In a separate experiment, rats (n=6/group) were administered s.c. either S(-) nicotine (1 mg/kg), S(-) nornicotine (0.3, 1, 3 and 10 mg/kg), or vehicle (saline). To determine the effect of repeated drug administration on locomotor activity, drug or vehicle was administered respectively in the test-room once every 48 hrs for a total of 8 injections. After each injection, locomotor activity was recorded during a 50 min session (five 10-min blocks). On the ninth injection day (48 hrs following injection 8), each group of rats was administered a challenge dose (1 mg/kg) of S(-) nicotine in the test-room, and locomotor activity was determined immediately thereafter. On the tenth injection day, each group of rats was administered saline and locomotor activity recorded to determine potential conditioning effects of the repeated drug administration.
Post hoc analysis of pairwise comparisons was performed with Duncan's New Multiple Range test.

[11] = test system: nicotinic receptor sites in the brain; assay: displacement of nicotine from nicotinic receptor sites in the brain; assay type: binding

## CN1C(=O)CC[C@H]1c1cccnc1 [COT, Cotinine]
[1]
  detection in mouse brain: detected
[2]; 18 hrs
  detectability in brain at 18 hrs post-injection: still detectable
[2]; rat brain
  residence time in the CNS relative to NIC: longer residence time in the CNS than NIC
[2]; rat brain, after s.c. radiolabelled NIC
  presence as metabolite in brain: major metabolite of NIC in brain
[3]; concentration-dependent
  evoked [3H]overflow: concentration dependent increase
[4]
  presence in rat brain after peripheral NIC injection: not found in rat brain

## CNC1(C)C2CCC(C2)C1(C)C (centres unmarked) [MEC, mecamylamine]
[5]
  block of R(+) norNIC-induced decrease in locomotor activity: blocked
[6]
  effect on nicotine interoceptive cues: blocks nicotine interoceptive cues
[3]; 10 μM NIC, concentration-dependent
  inhibition of NIC-evoked [3H]overflow: robustly inhibited
[3]; 0.01-100 μM
  effect on [3H]DA release itself: did not alter [^3 H]DA release itself
[3]; high concentrations (100 μM-3 mM) of norNIC
  inhibition of norNIC-evoked [3H]overflow: ineffective in inhibiting
[3]; low concentrations (<100 μM) of norNIC
  inhibition of norNIC-evoked [3H]overflow: effectively inhibited
[3]; norNIC concentration-response curve
  mode of antagonism of norNIC response: noncompetitive
[7]
  NMDA receptor inhibition: noncompetitive inhibitor

## CN1CCCC1=O [N-methyl-2-pyrrolidone]
[8]; Ames type assays and chronic exposure studies
  toxicity: not revealed any significant toxicity
[8]; animal and human experiments
  irritation or sensitization potential: very little irritation or sensitization potential
[9]
  miscibility: miscible with water

## c1cncc([C@H]2CCCN2)c1 [R(+) nornicotine, R-(+) nornicotine]
[5]
  cross-sensitization after chronic nicotine: increased activity, demonstrating cross-sensitization; also recorded: increased activity (i.e., cross-sensitization)
  locomotor activity, acute: decreased locomotor activity
[5]; listed as R(+) norNIC
  cross-sensitization after chronic nicotine: cross-sensitization to R(+) norNIC was observed
[10]
  behavioral sensitization after repeated administration: did not produce behavioral sensitization; also recorded: did not result in behavioral sensitization; also recorded: does not
  enabling of sensitization to S(-) nicotine: enabled sensitization to S(-) nicotine; also recorded: dose-related sensitization to the stimulatory effect of S(-) nicotine
[10]; listed as R(+) norNIC
  behavioral sensitization after repeated administration: does not
  enabling of sensitization to S(-) nicotine: enabled an enhanced response to NIC challenge
[10]; 48 hrs after S(-) nicotine challenge
  conditioned response to repeated administration (saline challenge): did not contribute to the observed behavioral sensitization
[10]; R(+) experiment, 0.3 mg/kg
  cumulated locomotor activity after saline challenge: 368 ± 39 number of photobeam interruptions/50 min session
[10]; R(+) experiment, 1.0 mg/kg
  cumulated locomotor activity after saline challenge: 478 ± 40 number of photobeam interruptions/50 min session
[10]; R(+) experiment, 3.0 mg/kg
  cumulated locomotor activity after saline challenge: 498 ± 44 number of photobeam interruptions/50 min session
[10]; R(+) experiment, 10 mg/kg
  cumulated locomotor activity after saline challenge: 234 ± 30 number of photobeam interruptions/50 min session
[10]; acute R(+) 0.3 mg/kg
  locomotor activity time course: small, but not significant, decreases
[10]; acute R(+) 10 mg/kg, initial 20 min
  locomotor activity time course: significantly decreased
[10]; acute R(+) 10 mg/kg, latter part of session
  locomotor activity time course: not different from the saline-control group
[10]; acute, 0.3 and 10 mg/kg, R(+) experiment
  cumulated locomotor activity vs saline-control: depression in activity
[10]; acute, R(+) 3 mg/kg s.c.
  locomotor activity, first 10 min: 125±17 photobeam interruptions
[10]; repeated R(+) 1 mg/kg
  locomotor activity, first 10 min after S(-) nicotine challenge: 127±12 photobeam interruptions
[10]; repeated R(+) 3 mg/kg
  locomotor activity, first 10 min after S(-) nicotine challenge: 136+32 photobeam interruptions
[10]; repeated R(+) 0.3-10 mg/kg
  locomotor activity time course: not different from that of the saline-control group
[10]; repeated R(+) 0.3 and 1 mg/kg
  cumulated locomotor activity after S(-) nicotine challenge: not different from the saline-control group
[10]; repeated R(+) 1-10 mg/kg
  S(-) nicotine-induced stimulation, first 10 min: significant (P<0.001) and dose-dependent
[10]; repeated R(+) 3 and 10 mg/kg
  cumulated locomotor activity after S(-) nicotine challenge: significant increases in activity
[10]; repeated, R(+) 0.3 mg/kg
  S(-) nicotine-induced stimulation, first 10 min: not significant
  cumulated locomotor activity vs saline-control: decreased significantly
  tolerance to depressant effect: tolerance did not develop
[10]; repeated, R(+) 10 mg/kg
  tolerance to depressant effect: tolerance developed
[10]; repeated, R(+) 1, 3 and 10 mg/kg
  cumulated locomotor activity vs saline-control: not different from that of the saline-control group
[3]; neuronal tissue
  release of dopamine from presynaptic terminals: stereoselective and receptor-mediated
[11]
  displacement of nicotine from nicotinic receptor sites: cause displacement of nicotine
